Test results reported in DBAASP.
Converted amounts (≈) assume the structure as drawn. “And” between values parts separate entries of the source, which are not always exact repeats. Equal entries are not always repeated.

Key:
Assay in all cases: ≥ marks a high value that may be exact or a test limit, other limits are often not marked, values filed in µg/mL are converted to µM
[1] = system: Escherichia coli ATCC 25922
Micrococcus luteus = system: Micrococcus luteus
[2] = system: Pseudomonas aeruginosa ATCC 15692
Saccharomyces cerevisiae = system: Saccharomyces cerevisiae
[3] = system: Staphylococcus aureus ATCC 25923
Bacillus megaterium = system: Bacillus megaterium
Escherichia coli ML-35 = system: Escherichia coli ML-35
[4] = system: Pseudomonas aeruginosa ATCC 27853
[5] = system: Salmonella enterica subsp. enterica serovar Typhimurium ATCC 14028
[6] = system: Bacillus subtilis CMCC 63501
[7] = system: Enterococcus faecalis ATCC 29212
Escherichia coli UB1005 = system: Escherichia coli UB1005
[8] = system: Salmonella enterica subsp. enterica serovar Pullorum C79-13
[9] = system: Salmonella typhimurium ATCC 7731
[10] = system: Staphylococcus aureus ATCC 43300
[11] = system: Staphylococcus epidermidis ATCC 12228
Escherichia coli ML-35p = system: Escherichia coli ML-35p
[12] = system: Staphylococcus aureus BCRC 10780
[13] = system: Bacillus subtilis ATCC 6633
[14] = system: Pseudomonas aeruginosa ATCC BAA-427
Bacillus subtilis = system: Bacillus subtilis
Candida albicans = system: Candida albicans
Escherichia coli = system: Escherichia coli
Proteus mirabilis = system: Proteus mirabilis
Pseudomonas aeruginosa = system: Pseudomonas aeruginosa
Salmonella typhimurium = system: Salmonella typhimurium
Serratia marcescens = system: Serratia marcescens
Shigella dysenteriae = system: Shigella dysenteriae
[15] = system: Staphylococcus epidermidis
[16] = system: Staphylococcus aureus ATCC 29213
[17] = system: Bacillus cereus ATCC 11778
[18] = system: Escherichia coli ATCC 35218
[19] = system: Pseudomonas aeruginosa ATCC 9027
[20] = system: Micrococcus luteus ATCC 4698

`CSCC[C@H](NC(=O)[C@@H](NC(=O)[C@@H](NC(=O)[C@H](CCCCN)NC(=O)[C@H](CC(C)C)NC(=O)[C@H](C)NC(=O)[C@H](CCCCN)NC(=O)[C@@H](NC(=O)[C@H](CC(C)C)NC(=O)[C@H](Cc1ccccc1)NC(=O)[C@H](CC(N)=O)NC(=O)[C@H](CCC(=O)O)NC(=O)[C@H](Cc1ccccc1)NC(=O)CNC(=O)[C@H](CC(C)C)NC(=O)[C@@H](N)CCCCN)C(C)C)[C@@H](C)O)C(C)C)C(=O)N[C@@H](Cc1cnc[nH]1)C(=O)N[C@H](C(=O)N1CCC[C@H]1C(=O)N[C@H](C(=O)N[C@@H](CO)C(=O)N1CCC[C@H]1C(=O)N[C@@H](CC(C)C)C(=O)N[C@@H](CC(C)C)C(N)=O)[C@@H](C)O)C(C)C` [KLGFENFLVKALKTVMHVPTSPLL] gave an MIC [1] of 16 µM (≈ 42.9 µg/mL), an MIC (Micrococcus luteus) of 4 µM (≈ 10.7 µg/mL) and an MIC [2] of at least 256 µM. For the same compound, the MIC (Saccharomyces cerevisiae) was at least 64 µM and the MIC [3] was over 256 µM.

For `CC[C@H](C)[C@H](NC(=O)[C@H](CCCCN)NC(=O)[C@H](CCCCN)NC(=O)[C@H](CC(C)C)NC(=O)[C@H](CCCCN)NC(=O)[C@H](CCC(=O)O)NC(=O)[C@H](CCCCN)NC(=O)[C@H](CCCCN)NC(=O)[C@H](CCCCN)NC(=O)[C@H](CC(N)=O)NC(=O)[C@H](CCCN=C(N)N)NC(=O)[C@H](Cc1ccccc1)NC(=O)[C@H](CCCCN)NC(=O)[C@H](CCCN=C(N)N)NC(=O)[C@H](CCCCN)NC(=O)[C@H](CCCN=C(N)N)NC(=O)[C@H](CCCCN)NC(=O)[C@H](CCCN=C(N)N)NC(=O)[C@H](CC(C)C)NC(=O)CN)C(=O)O` [GLRKRKRKFRNKKKEKLKKI], the MIC (Bacillus megaterium) was at least 64 µM, the MIC [1] was over 64 µM and the MIC (Escherichia coli ML-35) was at least 64 µM. The MIC [4] was over 64 µM, the MIC [5] was over 64 µM and the MIC [3] was over 64 µM.

In the case of `CC[C@H](C)[C@H](N)C(=O)N[C@@H](Cc1cnc[nH]1)C(=O)N[C@@H](CCCCN)C(=O)N[C@@H](Cc1ccccc1)C(=O)N[C@@H](Cc1c[nH]c2ccccc12)C(=O)N[C@@H](CCCN=C(N)N)C(=O)N1CCC[C@H]1C(=O)NCC(=O)N[C@@H](CCCN=C(N)N)C(=O)N[C@@H](Cc1c[nH]c2ccccc12)C(=O)N[C@@H](Cc1ccccc1)C(=O)N[C@@H](CCCCN)C(=O)N[C@@H](Cc1cnc[nH]1)C(=O)N[C@H](C(N)=O)[C@@H](C)CC` [IHKFWRPGRWFKHI], the MIC [6] is reported as 8 µM (≈ 15.3 µg/mL), the MIC [7] is reported as 8 µM (≈ 15.3 µg/mL) and the MIC (Escherichia coli UB1005) is reported as 4 µM (≈ 7.63 µg/mL). It also gave an MIC [4] of 4 µM (≈ 7.63 µg/mL), an MIC [8] of 4 µM (≈ 7.63 µg/mL) and an MIC [9] of 8 µM (≈ 15.3 µg/mL). It also gave an MIC [10] of 16 µM (≈ 30.5 µg/mL) and an MIC [11] of 16 µM (≈ 30.5 µg/mL).

With `CC(C)C[C@H](NC(=O)[C@H](CCCCN)NC(=O)[C@H](CCCCN)NC(=O)[C@H](Cc1ccccc1)NC(=O)[C@H](Cc1ccccc1)NC(=O)[C@H](CCCCN)NC(=O)[C@H](CCCCN)NC(=O)[C@H](Cc1ccccc1)NC(=O)[C@H](CCCN=C(N)N)NC(=O)[C@@H](N)CCCCN)C(=O)N[C@@H](CCCCN)C(=O)N[C@@H](CCCCN)C(=O)N[C@@H](Cc1ccccc1)C(=O)N[C@H](C(=O)N[C@@H](CCCCN)C(=O)N[C@@H](CCCCN)C(=O)NCC(=O)N[C@@H](Cc1ccccc1)C(=O)N[C@@H](CCCCN)C(=O)N[C@@H](CCCCN)C(=O)N[C@@H](Cc1ccccc1)C(=O)N[C@@H](C)C(=O)N[C@@H](CCCCN)C(=O)N[C@H](C(=O)O)C(C)C)C(C)C` [KRFKKFFKKLKKFVKKGFKKFAKV] the MIC (Escherichia coli ML-35p) was 1.98 µM and 0.989 µM.

Work on `CC[C@H](C)[C@H](NC(=O)[C@H](CCCCN)NC(=O)[C@@H]1CCCN1C(=O)[C@@H](NC(=O)[C@H](CC(C)C)NC(=O)[C@H](C)NC(=O)[C@H](Cc1ccccc1)NC(=O)[C@H](Cc1ccccc1)NC(=O)CNC(C)=O)[C@@H](C)CC)C(N)=O` [GFFALIPKI] yielded an MIC [12] of at least 99.5 µM.

In the case of `CC(C)C[C@H](NC(=O)[C@H](CC(=O)O)NC(=O)[C@H](CC(C)C)NC(=O)[C@H](CCCCN)NC(=O)[C@H](CC(C)C)NC(=O)[C@H](CC(=O)O)NC(=O)[C@H](CC(C)C)NC(=O)[C@H](CCCCN)NC(=O)[C@H](CC(C)C)NC(=O)[C@H](CC(=O)O)NC(=O)[C@H](CC(C)C)NC(=O)[C@H](CCCCN)NC(=O)[C@H](CCCN=C(N)N)NC(=O)[C@H](CCCN=C(N)N)NC(=O)[C@@H](N)CCCN=C(N)N)C(=O)O` [RRRKLDLKLDLKLDL], the MIC [13] is reported as 5 µM (≈ 9.48 µg/mL), the MIC [1] is reported as 6 µM (≈ 11.4 µg/mL) and the MIC [14] is reported as 6 µM (≈ 11.4 µg/mL). For the same compound, the MIC [3] was 5 µM (≈ 9.48 µg/mL).

In the case of `CC[C@H](C)[C@H](NC(=O)CN)C(=O)N[C@@H](CC(C)C)C(=O)N[C@@H](CC(=O)O)C(=O)N[C@H](C(=O)N[C@@H](CC(C)C)C(=O)N[C@@H](CCCCN)C(=O)N[C@@H](CCC(N)=O)C(=O)N[C@@H](Cc1ccccc1)C(=O)N[C@@H](C)C(=O)N[C@@H](CCCCN)C(=O)NCC(=O)N[C@H](C(=O)NCC(=O)N[C@@H](CCCCN)C(=O)N[C@@H](CC(=O)O)C(=O)N[C@@H](CC(C)C)C(=O)N[C@H](C(=O)N[C@@H](CCCCN)C(=O)NCC(=O)N[C@@H](C)C(=O)N[C@@H](C)C(=O)N[C@@H](CCC(N)=O)C(=O)NCC(=O)N[C@H](C(=O)N[C@@H](CC(C)C)C(=O)N[C@@H](CO)C(=O)N[C@H](C(=O)N[C@H](C(=O)O)C(C)C)[C@@H](C)O)C(C)C)C(C)C)C(C)C)[C@@H](C)O` [GILDTLKQFAKGVGKDLVKGAAQGVLSTV], the MIC (Bacillus subtilis) is reported as 17.2 µM (≈ 50 µg/mL), the MIC (Candida albicans) is reported as over 34.3 µM and the MIC (Escherichia coli) is reported as 8.58 µM (≈ 25 µg/mL). For the same compound, the MIC (Micrococcus luteus) was 0.858 µM (≈ 2.5 µg/mL), the MIC (Proteus mirabilis) was 17.2 µM (≈ 50 µg/mL) and the MIC (Pseudomonas aeruginosa) was 8.58 µM (≈ 25 µg/mL). It also gave an MIC (Saccharomyces cerevisiae) of 8.58 µM (≈ 25 µg/mL), an MIC (Salmonella typhimurium) of 17.2 µM (≈ 50 µg/mL) and an MIC (Serratia marcescens) of at least 34.3 µM. For the same compound, the MIC (Shigella dysenteriae) was 8.58 µM (≈ 25 µg/mL) and the MIC [15] was at least 34.3 µM.

Compound `CC[C@H](C)[C@H](N)C(=O)N[C@@H](Cc1cnc[nH]1)C(=O)N[C@@H](CCCCN)C(=O)N[C@@H](Cc1ccccc1)C(=O)N[C@@H](Cc1c[nH]c2ccccc12)C(=O)N[C@@H](CCCN=C(N)N)C(=O)N[C@@H](CS)C(=O)N[C@@H](CCCN=C(N)N)C(=O)N[C@@H](CCCN=C(N)N)C(=O)N[C@@H](CCCN=C(N)N)C(=O)N[C@@H](Cc1ccccc1)C(=O)N[C@@H](CS)C(=O)N[C@@H](CCCN=C(N)N)C(=O)N[C@@H](Cc1c[nH]c2ccccc12)C(=O)N[C@@H](Cc1ccccc1)C(=O)N[C@@H](CCCCN)C(=O)N[C@@H](Cc1cnc[nH]1)C(=O)N[C@H](C(N)=O)[C@@H](C)CC` [IHKFWRCRRRFCRWFKHI] has an MIC [6] of 16 µM (≈ 41.2 µg/mL), an MIC [7] of 16 µM (≈ 41.2 µg/mL) and an MIC (Escherichia coli UB1005) of 8 µM (≈ 20.6 µg/mL). It also gave an MIC [4] of 8 µM (≈ 20.6 µg/mL), an MIC [8] of 8 µM (≈ 20.6 µg/mL) and an MIC [9] of 8 µM (≈ 20.6 µg/mL). The MIC [16] was 8 µM and 16 µM, the MIC [10] was 8 µM (≈ 20.6 µg/mL) and the MIC [11] was 8 µM (≈ 20.6 µg/mL).

Compound `CC(C)C[C@H](NC(=O)[C@@H](NC(=O)[C@H](CCCCN)NC(=O)[C@H](CCCCN)NC(=O)[C@@H](N)CC(C)C)C(C)C)C(=O)N[C@@H](CCCCN)C(=O)N[C@@H](C)C(=O)N[C@@H](C)C(=O)N[C@@H](C)C(N)=O` [LKKVLKAAA] has an MIC [17] of at least 50 µM, an MIC [18] of at least 50 µM and an MIC [19] of over 50 µM. The MIC [3] was over 50 µM.

`CC(C)C[C@H](NC(=O)[C@H](CCCN=C(N)N)NC(=O)[C@H](Cc1cnc[nH]1)NC(=O)[C@H](Cc1c[nH]c2ccccc12)NC(=O)CNC(=O)CNC(=O)[C@@H](N)CO)C(=O)N[C@@H](CCCN=C(N)N)C(=O)N[C@@H](CO)C(=O)O` [SGGWHRLRS] gave an MIC [20] of at least 75 µM.
